Where “and” joins values, the source holds several entries; their conditions need not be identical. Equal values may be shown once. Records with an inconclusive call do not appear. *1 amine or outer side, *2 acyl side, *3 side chain or, on linkers, in order; H or OH if unused. Where a SMILES comes first, the peptide text is derived from it. Bridges are numbered along the chain shown (N, C = ends). Roman numbers before positions name the chains, in order. [ ]: non-standard residue; d: D form. Actinocin(9to1) = Cc1c2oc3c(C)ccc(C(=O)[*:1])c3nc-2c(C(=O)[*:2])c(N)c1=O; aThr = C[C@H](O)[C@H](N)C(=O)O; NMeV = CN[C@H](C(=O)O)C(C)C; Sar = CNCC(=O)O
System: BDF1 mice, B16 melanoma s.c., survival/tumor T/C
Assay: NCI In Vivo Anticancer Drug Screen. Data for tumor model B16 Melanoma (subcutaneous) in B6D2F1 (BDF1) mice
Protocol: The antitumor activity of compounds was measured in mice bearing transplantable tumors. Survival or tumor size were measured and the results are expressed as the measurement made in the treated group (T) divided by the measurement made in the vehicle treated control group (C). The tumor model used in this assay is B16 Melanoma (subcutaneous) in B6D2F1 (BDF1) mice

[1] = endpoint: median survival time, dose: 8.0 mg/kg/injection, schedule: Q01DX009 (ip), vehicle: saline with Tween-80, higher = longer survival
[2] = endpoint: median survival time, dose: 16.0 mg/kg/injection, schedule: Q01DX009 (ip), vehicle: saline with Tween-80, higher = longer survival
[3] = endpoint: median survival time, dose: 32.0 mg/kg/injection, schedule: Q01DX009 (ip), vehicle: saline with Tween-80, higher = longer survival
[4] = endpoint: median survival time, dose: 64.0 mg/kg/injection, schedule: Q01DX009 (ip), vehicle: saline with Tween-80, higher = longer survival
[5] = endpoint: median survival time, dose: 2.5 mg/kg/injection, schedule: Q01DX009 (ip), vehicle: saline, higher = longer survival

With `CC1=C(/C=C/C(C)=C/C=C/C(C)=C/CO)C(C)(C)CCC1` the T/C (endpoint: median survival time, dose: 4.0 mg/kg/injection, schedule: Q01DX009 (ip), vehicle: saline with Tween-80, higher = longer survival) was 102 % of control, the T/C [1] was 94 % of control and the T/C [2] was 101 % of control and 117 % of control. The T/C [3] was 100 % of control and 102 % of control and the T/C [4] was 92 % of control.

With `Nc1nc(=S)c2[nH]cnc2[nH]1` the T/C (endpoint: median survival time, dose: 48.0 mg/kg/injection, schedule: Q01DX001 (ip), vehicle: alkali diluted with saline, higher = longer survival) was 102 % of control.

For `C[n+]1c(/C=C\C=C\N2CCCCC2)sc2ccccc21`, the T/C (endpoint: median survival time, dose: 0.01 mg/kg/injection, schedule: Q01DX009 (ip), vehicle: Klucel (hydroxypropylcellulose) (HPC), higher = longer survival) was 188 % of control, the T/C (endpoint: median survival time, dose: 0.02 mg/kg/injection, schedule: Q01DX009 (ip), vehicle: Klucel (hydroxypropylcellulose) (HPC), higher = longer survival) was 170 % of control and the T/C (endpoint: median survival time, dose: 0.05 mg/kg/injection, schedule: Q01DX009 (ip), vehicle: Klucel (hydroxypropylcellulose) (HPC), higher = longer survival) was 160 % of control. The T/C (endpoint: median survival time, dose: 0.1 mg/kg/injection, schedule: Q01DX009 (ip), vehicle: Klucel (hydroxypropylcellulose) (HPC), higher = longer survival) was 171 % of control and the T/C (endpoint: median survival time, dose: 0.4 mg/kg/injection, schedule: Q01DX009 (ip), vehicle: Klucel (hydroxypropylcellulose) (HPC), higher = longer survival) was 121 % of control.

With `CSCCC(N)C(=O)O` (stereo unspecified) the T/C (endpoint: median survival time, dose: 40.0 mg/kg/injection, schedule: Q01DX009 (ip), vehicle: Klucel (hydroxypropylcellulose) (HPC), higher = longer survival) was 108 % of control, the T/C (endpoint: median survival time, dose: 80.0 mg/kg/injection, schedule: Q01DX009 (ip), vehicle: Klucel (hydroxypropylcellulose) (HPC), higher = longer survival) was 97 % of control and the T/C (endpoint: median survival time, dose: 160.0 mg/kg/injection, schedule: Q01DX009 (ip), vehicle: Klucel (hydroxypropylcellulose) (HPC), higher = longer survival) was 97 % of control. The T/C (endpoint: median survival time, dose: 320.0 mg/kg/injection, schedule: Q01DX009 (ip), vehicle: Klucel (hydroxypropylcellulose) (HPC), higher = longer survival) was 122 % of control.

`CC(C)[C@](O)(C(=O)OCC1=CC[N+]2([O-])CC[C@@H](O)[C@@H]12)[C@H](C)O` (stereo partly specified) was tested, and the T/C (endpoint: median survival time, dose: 50.0 mg/kg/injection, schedule: Q01DX009 (ip), vehicle: water, higher = longer survival) was 95 % of control, the T/C (endpoint: median survival time, dose: 100.0 mg/kg/injection, schedule: Q01DX009 (ip), vehicle: water, higher = longer survival) was 106 % of control and the T/C (endpoint: median survival time, dose: 200.0 mg/kg/injection, schedule: Q01DX009 (ip), vehicle: water, higher = longer survival) was 103 % of control.

`CC1(C)OCC(CO)(Nc2nc(N3CC3)nc(N3CC3)n2)CO1` was tested, and the T/C (endpoint: median survival time, dose: 1.7 mg/kg/injection, schedule: Q01DX009 (ip), vehicle: saline, higher = longer survival) was 112 % of control, the T/C [5] was 104 % of control and the T/C (endpoint: median survival time, dose: 3.8 mg/kg/injection, schedule: Q01DX009 (ip), vehicle: saline, higher = longer survival) was 88 % of control.

With `C[C@@H]1CC[C@@]2(NC1)O[C@H]1C[C@H]3[C@@H]4CC=C5C[C@@H](O)CC[C@]5(C)[C@H]4CC[C@]3(C)[C@H]1[C@@H]2C` the T/C (endpoint: median survival time, dose: 0.78 mg/kg/injection, schedule: Q01DX009 (ip), vehicle: Klucel (hydroxypropylcellulose) (HPC), higher = longer survival) was 121 % of control, the T/C (endpoint: median survival time, dose: 1.56 mg/kg/injection, schedule: Q01DX009 (ip), vehicle: Klucel (hydroxypropylcellulose) (HPC), higher = longer survival) was 121 % of control and the T/C (endpoint: median survival time, dose: 6.25 mg/kg/injection, schedule: Q01DX009 (ip), vehicle: Klucel (hydroxypropylcellulose) (HPC), higher = longer survival) was 120 % of control.

In the case of `CN(C)CCCN1c2ccccc2Sc2ccc(Cl)cc21`, the T/C (endpoint: median survival time, dose: 0.06 mg/kg/injection, schedule: Q01DX009 (ip), vehicle: saline, higher = longer survival) is reported as 98 % of control, the T/C (endpoint: median survival time, dose: 0.12 mg/kg/injection, schedule: Q01DX009 (ip), vehicle: saline, higher = longer survival) is reported as 92 % of control and the T/C (endpoint: median survival time, dose: 0.5 mg/kg/injection, schedule: Q01DX009 (ip), vehicle: saline, higher = longer survival) is reported as 97 % of control. The T/C (endpoint: median survival time, dose: 1.0 mg/kg/injection, schedule: Q01DX009 (ip), vehicle: saline, higher = longer survival) was 98 % of control.

For `CN[C@H]1CCc2cc(OC)c(OC)c(OC)c2-c2ccc(OC)c(=O)cc21`, the T/C (endpoint: median survival time, dose: 1.25 mg/kg/injection, schedule: Q01DX009 (ip), vehicle: saline, higher = longer survival) was 109 % of control, the T/C [5] was 95 % of control and the T/C (endpoint: median survival time, dose: 10.0 mg/kg/injection, schedule: Q01DX009 (ip), vehicle: saline, higher = longer survival) was 111 % of control.

For `COC(=O)C[C@](O)(CCCC(C)(C)O)C(=O)O[C@@H]1C(OC)=C[C@]23CCCN2CCc2cc4c(cc2[C@H]13)OCO4`, the T/C (endpoint: median survival time, dose: 0.25 mg/kg/injection, schedule: Q01DX009 (ip), vehicle: acid diluted with saline, higher = longer survival) was 118 % of control, the T/C (endpoint: median survival time, dose: 0.5 mg/kg/injection, schedule: Q01DX009 (ip), vehicle: acid diluted with saline, higher = longer survival) was 100 % of control and the T/C (endpoint: median survival time, dose: 0.7 mg/kg/injection, schedule: Q01DX009 (ip), vehicle: acid diluted with saline, higher = longer survival) was 101 % of control. For the same molecule, the T/C (endpoint: median survival time, dose: 1.0 mg/kg/injection, schedule: Q01DX009 (ip), vehicle: acid diluted with saline, higher = longer survival) was 103 % of control and the T/C (endpoint: median survival time, dose: 1.5 mg/kg/injection, schedule: Q01DX009 (ip), vehicle: acid diluted with saline, higher = longer survival) was 101 % of control.

`O=[N+]([O-])c1nccn1CC(O)CO` (stereo unspecified) was tested, and the T/C (endpoint: median survival time, dose: 1000.0 mg/kg/injection, schedule: Q01DX001 (ip), vehicle: saline, higher = longer survival) was 91 % of control and the T/C (endpoint: median survival time, dose: 2500.0 mg/kg/injection, schedule: Q01DX001 (ip), vehicle: saline, higher = longer survival) was 85 % of control.

In the case of `CCCCCCCC(=O)OCC(=O)[C@]1(O)Cc2c(O)c3c(c(O)c2[C@@H](OC2CC(N)C(O)C(C)O2)C1)C(=O)c1c(OC)cccc1C3=O` (stereo partly specified), the T/C (endpoint: median survival time, dose: 0.5 mg/kg/injection, schedule: Q01DX009 (ip), vehicle: saline with Tween-80, higher = longer survival) is reported as 98 % of control and the T/C (endpoint: median survival time, dose: 1.0 mg/kg/injection, schedule: Q01DX009 (ip), vehicle: saline with Tween-80, higher = longer survival) is reported as 109 % of control.

`O=NN(CCF)C(=O)NC1CCS(=O)(=O)CC1` was tested, and the T/C (endpoint: median survival time, dose: 24.0 mg/kg/injection, schedule: Q01DX001 (ip), vehicle: other, higher = longer survival) was 156 % of control and the T/C (endpoint: median survival time, dose: 32.0 mg/kg/injection, schedule: Q01DX001 (ip), vehicle: other, higher = longer survival) was 175 % of control.

In the case of `CN(C)c1ccc(C(=O)c2ccc(N(C)C)cc2)cc1`, the T/C (endpoint: median survival time, dose: 100.0 mg/kg/injection, schedule: Q01DX009 (ip), vehicle: Klucel (hydroxypropylcellulose) (HPC), higher = longer survival) is reported as 113 % of control, the T/C (endpoint: median survival time, dose: 200.0 mg/kg/injection, schedule: Q01DX009 (ip), vehicle: Klucel (hydroxypropylcellulose) (HPC), higher = longer survival) is reported as 98 % of control and the T/C (endpoint: median survival time, dose: 400.0 mg/kg/injection, schedule: Q01DX009 (ip), vehicle: Klucel (hydroxypropylcellulose) (HPC), higher = longer survival) is reported as 110 % of control.

For `CCN(CC)CCCC(C)Nc1c2ccc(Cl)cc2nc2ccc(OC)cc12` (stereo unspecified), the T/C [1] was 116 % of control, the T/C (endpoint: median survival time, dose: 8.0 mg/kg/injection, schedule: Q01DX009 (ip), vehicle: saline, higher = longer survival) was 96 % of control and the T/C (endpoint: median survival time, dose: 8.0 mg/kg/injection, schedule: Q01DX009 (ip), vehicle: suspension in saline, higher = longer survival) was 119 % of control. The T/C [2] was 96 % of control and 118 % of control, the T/C (endpoint: median survival time, dose: 16.0 mg/kg/injection, schedule: Q01DX009 (ip), vehicle: saline, higher = longer survival) was 100 % of control and the T/C (endpoint: median survival time, dose: 16.0 mg/kg/injection, schedule: Q01DX009 (ip), vehicle: suspension in saline, higher = longer survival) was 121 % of control. The T/C [3] was 100 % of control and 108 % of control, the T/C (endpoint: median survival time, dose: 32.0 mg/kg/injection, schedule: Q01DX009 (ip), vehicle: saline, higher = longer survival) was 99 % of control and the T/C (endpoint: median survival time, dose: 32.0 mg/kg/injection, schedule: Q01DX009 (ip), vehicle: suspension in saline, higher = longer survival) was 116 % of control. The T/C [4] was 102 % of control and 110 % of control, the T/C (endpoint: median survival time, dose: 64.0 mg/kg/injection, schedule: Q01DX009 (ip), vehicle: saline, higher = longer survival) was 95 % of control and the T/C (endpoint: median survival time, dose: 64.0 mg/kg/injection, schedule: Q01DX009 (ip), vehicle: suspension in saline, higher = longer survival) was 121 % of control. For the same molecule, the T/C (endpoint: median survival time, dose: 128.0 mg/kg/injection, schedule: Q01DX009 (ip), vehicle: saline with Tween-80, higher = longer survival) was 102 % of control and the T/C (endpoint: median survival time, dose: 128.0 mg/kg/injection, schedule: Q01DX009 (ip), vehicle: suspension in saline, higher = longer survival) was 119 % of control.

For `C=CCN1/C(=C/C=C\c2sc3ccccc3[n+]2CC=C)Sc2ccccc21`, the T/C (endpoint: median survival time, dose: 125.0 micrograms/kg/injection, schedule: Q01DX009 (ip), vehicle: suspension in saline, higher = longer survival) was 121 % of control.

In the case of `Cc1c2oc3c(C)ccc(C(=O)N[C@@H]4C(=O)N[C@H](C(C)C)C(=O)N5CCC[C@H]5C(=O)N(C)CC(=O)N(C)[C@@H](C(C)C)C(=O)O[C@H]4C)c3nc-2c(C(=O)N[C@@H]2C(=O)N[C@H](C(C)C)C(=O)N3CCC[C@H]3C(=O)N(C)CC(=O)N(C)[C@@H](C(C)C)C(=O)O[C@H]2C)c(N)c1=O` (I: [aThr][dV]P[Sar][NMeV] / II: [aThr][dV]P[Sar][NMeV]; ester I:1-I:C, II:1-II:C; linker I:N-II:N via Actinocin(9to1)), the T/C (endpoint: median tumor weight (est.), dose: 100.0 micrograms/kg/injection, schedule: Q01DX009 (ip), vehicle: saline, higher = larger tumour) is reported as 38 % of control.

From PubChem BioAssay AID194 (DTP/NCI, 2004)
